Values quoted from earlier work as cited in patent US10730918B2, “Trap 63” (STRAUMANN HOLDING AG, priority 2013, dated 2020).

Tested on: cementoblasts
Conditions: Boabaid et al 2004

Molecule | effect on cell proliferation | number of cementoblasts in cell culture
LRAP: leucine-rich amelogenin polypeptide; SEQ ID NO: 4 identical to sequence in Boabaid et al 2004 (MPLPPHPGHPGYINFSYEVLTPLKWYQNMIRHPSLLPDLPLEAWPATDKTKREEVD; sus scrofa domesticus) | not to have any effect | decreased
full length amelogenin: full length amelogenin, major constituent of the enamel matrix (protein, UniProt Q99217 1-191, looked up, full-length, full length amelogenin, major constituent of the enamel matrix) MGTWILFACLLGAAFAMPLPPHPGHPGYINFSYEVLTPLKWYQSIRPPYPSYGYEPMGGWLHHQIIPVLSQQHPPTHTLQPHHHIPVVPAQQPVIPQQPMMPVPGQHSMTPIQHHQPNLPPPAQQPYQPQPVQPQPHQPMQPQPPVHPMQPLPPQPPLPPMFPMQPLPPMLPDLTLEAWPSTDKTKREEVD | no reported effect | –
